Experimental data reported in US8426429B2, “2-amino-quinazoline derivatives useful as inhibitors of β-secretase (BACE)” (Jansssen Pharmaceutica N.V., priority 2004, dated 2013).
Several values for one entry are separate records, joined by “and”; a condition that tells them apart may be missing. Identical values can stand only once.

Biological target: T1, β-secretase (BACE) (Homo sapiens, UniProt P56817)
T1 construct: purchased Panvera
Experiment: BACE FS1 % Inhibition Assay
Assay type: biochemical
Outline: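 Percent inhibition per compound concentration was referenced to vehicle-treated enzyme and no-enzyme wells. Enzyme at a 4 μg/mL working stock plus compound was mixed for 20 min at room temperature before the FS1 substrate (300 μg/mL working stock) was added for a 1 h room-temperature reaction.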

T1 sequence (P56817 46-501): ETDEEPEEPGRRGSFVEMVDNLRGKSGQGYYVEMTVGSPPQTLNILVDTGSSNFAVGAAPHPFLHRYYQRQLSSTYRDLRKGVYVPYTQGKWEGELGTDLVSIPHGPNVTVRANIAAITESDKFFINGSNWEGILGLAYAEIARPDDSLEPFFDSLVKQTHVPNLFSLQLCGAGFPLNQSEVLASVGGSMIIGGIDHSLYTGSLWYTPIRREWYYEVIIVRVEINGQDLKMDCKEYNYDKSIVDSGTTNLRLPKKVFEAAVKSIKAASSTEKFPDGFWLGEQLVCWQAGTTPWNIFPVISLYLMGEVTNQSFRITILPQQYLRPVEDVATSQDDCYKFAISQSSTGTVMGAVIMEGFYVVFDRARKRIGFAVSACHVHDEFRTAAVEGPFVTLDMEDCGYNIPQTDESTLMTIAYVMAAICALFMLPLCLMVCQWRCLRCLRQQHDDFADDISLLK

| % Inhibition (FS) (3 μM test compound) [%] | % Inhibition (FS) (0.3 μM test compound) [%] | % Inhibition (FS) (1 μM test compound) [%] | SMILES | further results |
| --- | --- | --- | --- | --- |
| 48 | <30 | <30 | COc1ccc(C)cc1-c1ccc2c(c1)CN(CCNC(=O)C1CCCCC1)C(N)=N2 [Compound 630] |  |
| 100 | <30 | 62 | Cc1ccccc1-c1ccc2c(c1)CN(CCNC(=O)C13CC4CC(CC(C4)C1)C3)C(N)=N2 [Compound 658] |  |
| 110 | 74 | 92 | NC1=Nc2ccc(-c3ccccc3F)cc2CN1CCNC(=O)C1CCCC1 [Compound 643] |  |
| 125 | 119 | 118 | CN(C(=O)CCC(C1CCOCC1)N1Cc2cc(Oc3ccccc3)ccc2N=C1N)C1CCCCC1 (stereo not shown) [Compound 619] |  |

The next lines start with the compound.

| SMILES | % Inhibition (FS) (3 μM test compound) [%] | % Inhibition (FS) (0.3 μM test compound) [%] | % Inhibition (FS) (1 μM test compound) [%] | further results |
| --- | --- | --- | --- | --- |
| CC(CC(=O)NCCN1Cc2cc(-c3ccccc3F)ccc2N=C1N)C(F)(F)F (stereo not shown) [Compound 681] |  |  |  | % Inhibition (FS) (0.3 μM compound, FS1 substrate): 67%; % Inhibition (FS) (1 μM compound, FS1 substrate): 100% |
| COc1ccc2c(c1)C(CC(=O)N(C)C1CCCCC1)CC2N1Cc2cc(Oc3ccccc3)ccc2N=C1N (stereo not shown) [Compound 146] | <30 |  |  | % Inhibition (FS) (10 μM test compound): 39% |
| NC1=Nc2ccc(-c3cnc4ccccc4c3)cc2CN1CCNC(=O)C12CC3CC(CC(C3)C1)C2 [Compound 672] |  |  |  | % Inhibition (FS) (0.3 μM compound, FS1 substrate): <30%; % Inhibition (FS) (1 μM compound, FS1 substrate): <30%; % Inhibition (FS) (3 μM compound, FS1 substrate): <30% |
| CC(C)N(C(=O)CC(C1CCCCC1)N1Cc2cc(Oc3ccccc3)ccc2N=C1N)C1CCCCC1 (stereo not shown) [Compound 200] | <30 | <30 | <30 |  |
| COc1ccc(-c2nc3ccccc3s2)c(Oc2ccc3c(c2)CN(Cc2cccc(C(=O)N(C)C4CCCCC4)c2)C(N)=N3)c1 [Compound 469] | <30 | <30 | <30 |  |
| COc1ccccc1Oc1ccc2c(c1)CN(Cc1cccc(C(=O)N(C)C3CCCCC3)c1)C(N)=N2 [Compound 232] | 31 | <30 | <30 |  |
| CC(C)c1ccccc1Oc1ccc2c(c1)CN(C(CC(=O)NC1CCCCC1)C1CCCCC1)C(N)=N2 (stereo not shown) [Compound 313] | 31 | <30 | <30 |  |
| CC1CCC(N(C(=O)c2cccc(CN3Cc4cc(Oc5ccccc5)ccc4N=C3N)c2)C2CCC(C)CC2)CC1 (stereo not shown) [Compound 187] | 39 | <30 | <30 |  |
| CN(CCN1Cc2cc(Oc3ccccc3)ccc2N=C1N)C1CCCCC1 [Compound 429] | <30 | <30 | <30 |  |
| CC(=O)N1CCC(C(=O)NCCN2Cc3cc(C4=CCCCC4)ccc3N=C2N)CC1 [Compound 705] |  |  |  | % Inhibition (FS) (0.3 μM compound, FS1 substrate): <30%; % Inhibition (FS) (1 μM compound, FS1 substrate): <30%; % Inhibition (FS) (3 μM compound, FS1 substrate): <30% |
| CCCC(CCC)C(=O)N1CCC(N2Cc3cc(Oc4ccccc4)ccc3N=C2N)CC1 [Compound 523] | 58 | <30 | <30 |  |
| NC1=Nc2ccc(Oc3ccccc3)cc2CN1CCNC(=O)CCc1ccccc1 [Compound 155] | <30 |  |  | % Inhibition (FS) (10 μM test compound): 49% |
| CC(C)(C)C(=O)Nc1cccc(CN2Cc3cc(Oc4ccccc4)ccc3N=C2N)c1 [Compound 290] | <30 | <30 | <30 |  |
| CC(C)CCC(=O)NCCN1Cc2cc(-c3ccc4ccccc4c3)ccc2N=C1N [Compound 668] |  |  |  | % Inhibition (FS) (0.3 μM compound, FS1 substrate): <30%; % Inhibition (FS) (1 μM compound, FS1 substrate): <30%; % Inhibition (FS) (3 μM compound, FS1 substrate): <30% |
| CN(C(=O)c1cccc(CN2Cc3cc(Nc4ccc(N5CCOCC5)cc4)ccc3N=C2N)c1)C1CCCCC1 [Compound 439] | <30 | <30 | <30 |  |
| CC(C)CC(=O)NC[C@@H](C(C)C)N1Cc2cc(Oc3ccccc3)ccc2N=C1N [Compound 563] | 127 | 101 | 119 |  |
| CCCC(CNC(=O)C1CCCCC1)N1Cc2cc(Oc3ccccc3)ccc2N=C1N (stereo not shown) [Compound 601] |  |  |  | % Inhibition (FS) (0.3 μM test compound, 0.3 µM): 105%; % Inhibition (FS) (1 μM test compound, 1 µM): 115%; % Inhibition (FS) (3 μM test compound, 3 µM): 121% |
| CN(C(=O)c1cccc(CN2Cc3cc(Oc4ccccc4CC(N)=O)ccc3N=C2N)c1)C1CCCCC1 [Compound 235] | <30 | <30 | 46 |  |
| CC(CC(=O)NCCN1Cc2cc(-c3ccccc3)ccc2N=C1N)C(F)(F)F (stereo not shown) [Compound 685] |  |  |  | % Inhibition (FS) (0.3 μM compound, FS1 substrate): 50%; % Inhibition (FS) (1 μM compound, FS1 substrate): 90% |
| CCCC(=O)NCCN1Cc2cc(-c3ccc4ccccc4c3)ccc2N=C1N [Compound 666] |  |  |  | % Inhibition (FS) (0.3 μM compound, FS1 substrate): 37%; % Inhibition (FS) (1 μM compound, FS1 substrate): <30%; % Inhibition (FS) (3 μM compound, FS1 substrate): <30% |
| COc1ccccc1-c1ccc2c(c1)CN(CCNC(=O)C1CCN(C(C)=O)CC1)C(N)=N2 [Compound 491] |  | <30 | <30 | % Inhibition (FS) (3 μM test compound, 3 µM): 44% and <30% |
| CCc1ccccc1-c1ccc2c(c1)CN(Cc1cccc(C(=O)N(C)C3CCCCC3)c1)C(N)=N2 [Compound 320] | <30 | −31 | <30 |  |
| C=CCc1cccc(C)c1Oc1ccc2c(c1)CN(Cc1cccc(C(=O)N(C)C3CCCCC3)c1)C(N)=N2 [Compound 480] | 38 | <30 | <30 |  |

| SMILES | % Inhibition (FS) (3 μM test compound) [%] | % Inhibition (FS) (0.3 μM test compound) [%] | % Inhibition (FS) (1 μM test compound) [%] | further results |
| --- | --- | --- | --- | --- |
| CC(C)Oc1ccc2c(c1)CN(Cc1cccc(C(=O)N(C)C3CCCCC3)c1)C(N)=N2 [Compound 519] | <30 | <30 | <30 |  |
| CN(C(=O)c1cccc(CN2Cc3cc(Nc4ccc5ccccc5c4)ccc3N=C2N)c1)C1CCCCC1 [Compound 436] | 50 | <30 | 37 |  |
| CCCC(CNC(=O)C1CCCCC1)N1Cc2cc(Oc3ccccc3)ccc2N=C1N (stereo not shown) [Compound 554] |  |  |  | % Inhibition (FS) (0.3 μM test compound, 0.3 µM): <30%; % Inhibition (FS) (1 μM test compound, 1 µM): <30%; % Inhibition (FS) (3 μM test compound, 3 µM): 42% |
| CCCC(CNC(=O)C12CC3CC(CC(C3)C1)C2)N1Cc2cc(Oc3ccccc3)ccc2N=C1N (stereo not shown) [Compound 602] |  |  |  | % Inhibition (FS) (0.3 μM test compound, 0.3 µM): 78%; % Inhibition (FS) (1 μM test compound, 1 µM): 113%; % Inhibition (FS) (3 μM test compound, 3 µM): 121% |
| COC(=O)Cc1cccc(CN(C)C(=O)CCC(C2CCCCC2)N2Cc3cc(Oc4ccccc4)ccc3N=C2N)c1 (stereo not shown) [Compound 775] |  |  |  | % Inhibition (FS) (0.3 μM compound, FS1 substrate): <30%; % Inhibition (FS) (1 μM compound, FS1 substrate): 62% |
| CN(Cc1csc(-c2ccccc2)n1)C(=O)CC[C@@H](C1CCCCC1)N1Cc2cc(-c3ccccc3F)ccc2N=C1N [Compound 722] |  |  |  | % Inhibition (FS) (0.3 μM compound, FS1 substrate): 35%; % Inhibition (FS) (1 μM compound, FS1 substrate): 35%; % Inhibition (FS) (3 μM compound, FS1 substrate): 78% |
| CN1CCC(N(C)C(=O)c2cccc(CN3Cc4cc(Oc5ccccc5)ccc4N=C3N)c2)CC1 [Compound 223] | <30 | <30 | <30 |  |
| Cc1ccc(Sc2ccc3c(c2)CN(Cc2cccc(C(=O)N(C)C4CCCCC4)c2)C(N)=N3)cc1C [Compound 408] | 95 | <30 | 34 |  |
| COc1cccc(Nc2ccc3c(c2)CN(Cc2cccc(C(=O)N(C)C4CCCCC4)c2)C(N)=N3)c1 [Compound 433] | 88 | <30 | 33 |  |
| CN(C(=O)c1cccc(CN2Cc3cc(OCc4ccccc4-c4ccccc4)ccc3N=C2N)c1)C1CCCCC1 [Compound 513] | <30 | <30 | <30 |  |
| CN(C(=O)CCC(C1CCOCC1)N1Cc2cc(Oc3ccccc3)ccc2N=C1N)C1CCC(C(=O)O)CC1 (stereo not shown) [Compound 743] |  |  |  | % Inhibition (FS) (3 μM compound, FS1 substrate): 130% |
| C[C@@H](CNC(=O)C1CCCCC1)N1Cc2cc(Oc3ccccc3)ccc2N=C1N [Compound 486] | <30 | <30 | <30 |  |
| CN(C(=O)c1cccc(CN2Cc3cc(-c4cn[nH]c4)ccc3N=C2N)c1)C1CCCCC1 [Compound 161] | <30 | <30 | <30 |  |
| CC(C)C(CC(=O)NC1C2CC3CC(C2)CC1C3)N1Cc2cc(Oc3ccccc3)ccc2N=C1N (stereo not shown) [Compound 402] | 99 | <30 | 53 |  |
| NC1=Nc2ccc(-c3ccc4ccccc4c3)cc2CN1CCNC(=O)C1CCC1 [Compound 663] |  |  |  | % Inhibition (FS) (0.3 μM compound, FS1 substrate): <30%; % Inhibition (FS) (1 μM compound, FS1 substrate): <30%; % Inhibition (FS) (3 μM compound, FS1 substrate): <30% |
| Cc1cc(C)cc(Oc2ccc3c(c2)CN(Cc2cccc(C(=O)N(C)C4CCCCC4)c2)C(N)=N3)c1 [Compound 228] | 40 | <30 | 49 |  |
| CN(C(=O)CCC(C)(C)N1Cc2cc(Oc3ccccc3)ccc2N=C1N)C1CCCCC1 [Compound 738] |  |  |  | % Inhibition (FS) (0.3 μM compound, FS1 substrate): 14%; % Inhibition (FS) (1 μM compound, FS1 substrate): 28%; % Inhibition (FS) (3 μM compound, FS1 substrate): 61% |
| CN(C(=O)c1cccc(CN2Cc3cc(OC4CCCC4)ccc3N=C2N)c1)C1CCCCC1 [Compound 520] | 33 | <30 | <30 |  |
| CN(C(=O)c1ccccc1CN1Cc2cc(Oc3ccccc3)ccc2N=C1N)C1CCCCC1 [Compound 463] | <30 | <30 | <30 |  |
| NC1=Nc2ccc(Oc3ccccc3)cc2CN1Cc1cccc(CNC(=O)C(F)(F)F)c1 [Compound 307] | <30 | <30 | <30 |  |
| NC1=Nc2ccc(Oc3ccccc3)cc2CN1Cc1cccc(C(=O)N2CCC3CCCCC3C2)c1 (stereo not shown) [Compound 193] | 67 | <30 | 34 |  |
| CN(C(=O)CCC(C1CCCCC1)N1Cc2cc(Oc3ccccc3)ccc2N=C1N)C1CCC(C#N)CC1 (stereo not shown) [Compound 769] |  |  |  | % Inhibition (FS) (0.3 μM compound, FS1 substrate): <30%; % Inhibition (FS) (1 μM compound, FS1 substrate): 61% |
